In PubChem BioAssay AID1224913 one finds inhibition data, which are given here for one compound.

This test addresses Proto-oncogene tyrosine-protein kinase Src (Homo sapiens) (UniProt P12931). As to the kind of experiment: cellular SRC kinase inhibition, late-stage follow-up, cell-based, Western blot (AID 1224913). The conditions noted are these: MDA-MB-231/MCF7 cells, pSRC Y416 Western blot; at 0.1 µM; hits give high values.

Chain of Proto-oncogene tyrosine-protein kinase Src (Homo sapiens) (P12931 whole entry, looked up): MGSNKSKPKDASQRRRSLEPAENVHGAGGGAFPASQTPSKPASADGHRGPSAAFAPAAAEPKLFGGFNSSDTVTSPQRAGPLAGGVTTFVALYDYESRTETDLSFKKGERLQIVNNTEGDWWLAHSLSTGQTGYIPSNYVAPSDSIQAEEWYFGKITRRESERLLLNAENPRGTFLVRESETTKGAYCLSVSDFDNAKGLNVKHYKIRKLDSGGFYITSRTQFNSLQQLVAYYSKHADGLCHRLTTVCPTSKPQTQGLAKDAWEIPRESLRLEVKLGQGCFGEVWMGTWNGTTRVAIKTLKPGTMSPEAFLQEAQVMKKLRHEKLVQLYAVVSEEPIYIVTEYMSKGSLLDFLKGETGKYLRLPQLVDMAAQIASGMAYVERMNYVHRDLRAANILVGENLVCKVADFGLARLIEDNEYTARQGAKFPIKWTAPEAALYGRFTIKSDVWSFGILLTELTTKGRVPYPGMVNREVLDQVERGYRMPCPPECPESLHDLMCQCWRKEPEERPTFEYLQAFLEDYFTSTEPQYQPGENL

As for `COc1cc(-c2nn(CCN3CCC(N(C)C)CC3)c3ncnc(N)c23)ccc1NC(=O)OC(C)(C)C`, the inhibition was 100%.
